Laboratory results taken from US10440955B2, “Methods comprising a biocidal polyamine” (Curza Global, LLC, priority 2013, dated 2019).
Where “and” joins values, the source holds several entries; their conditions need not be identical. Equal values may be shown once. Where a name gives a salt, the structure may show the parent alone. Read-outs that look alike come from different tables or passages of the source.

Legend:
L-929 cells (ATCC CCL-1) = test: Minimal Essential Media (MEM) Elution cytotoxicity test; format: cell-based
Summary of the method: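 L-929 cells (ATCC CCL-1) were seeded in multiwell plates and grown to roughly 80% confluence. Test article dilutions (1:2, 1:4, 1:8, 1:16) and control extracts were applied in triplicate and incubated 48±3 hours at 37±1° C. in 5±1% CO2. Wells were scored microscopically for morphological cytotoxicity on a 0–4 scale and averaged; Pass required grade not greater than 2 per USP <87>.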

MRSA = test: MIC, 96-well CAMHB, 10^5 to 10^2 CFU/mL in 24 hours; format: cell-based, Staphylococcus aureus; details: Staphylococcus aureus, MRSA
Summary of the method: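 Compound exposure was 24 h at 37 °C in CAMHB with an inoculum of ~5×10^5 CFU/mL from a 0.5 McFarland; eight replicates per concentration.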

MRSA biofilms [1] = test: MBEC, MBEC Inoculation Tray (Innovotech), to 10^2 CFU/peg in 24 hours; format: cell-based; details: Staphylococcus aureus, read-out: MICs (μg/mL): MRSA
MRSA biofilms [2] = test: EBEC, high number biofilms on PEEK membranes, 10^9 to 10^2 CFU/PEEK membrane in 24 hours; format: cell-based; details: Staphylococcus aureus, read-out: MICs (μg/mL) II: MRSA
A. baumannii biofilms [3] = test: as above; format: cell-based, Acinetobacter baumannii; details: Table 3B c4, group head missing
A. baumannii biofilms [4] = test: MBEC, MBEC Inoculation Tray (Innovotech), to 10^2 CFU/peg in 24 hours; format: cell-based, Acinetobacter baumannii; details: Table 3B c1, group head missing, probably MBEC
A. baumannii biofilms [5] = test: as above; format: cell-based, Acinetobacter baumannii
Text: To determine the MBEC of each polyamine compound, the MBEC Inoculation Tray by Innovotech, formerly known as the Calgary biofilm device, was used. Within this device, biofilms grow on the surface of polystyrene pegs, 96 of which are attached to a lid. These pegs are inserted into a flat bottom 96-well plate. In this instance, the MBEC of a molecule was defined as the concentration of compound (in μg/mL) required to reduce 10^5 or 10^6 CFU/peg (biofilm levels varied by isolate) to 10^2 CFU/peg in a 24-hour period.
Following the manufacturer's guidelines, biofilms were grown on the surface of each peg by first making a 0.5 McFarland of each isolate. The 0.5 McFarland was diluted 1:100 in CAMHB. Into each well of a flat bottom 96-well plate, 150 μL of broth were pipetted. The plate was shaken at 100 rpm for 24 hours (P. aeruginosa and A. baumannii) or 48 hours (MRSA). The pegs were then placed into a separate flat bottom 96-well plate for 10 seconds with 200 μL of phosphate buffered saline (PBS) in each well to remove nonadherent cells. The lid was then placed into a 96-well plate that contained varying concentrations of antimicrobial with 200 μL per well. The plate was incubated for 24 hours at 37° C. after which time 100 μL of broth were plated on TSA. TSA plates were incubated 24 hours at 37° C. and the number of CFU counted to calculate the CFU/peg. In this instance, the MBEC was defined as the concentration of antimicrobial required to reduce 10^5 or 10^6 CFU/peg to 10^2 CFU/peg in a 24 hour period.
To determine the MBEC, the MBEC Inoculation Tray by Innovotech, formerly known as the Calgary biofilm device, is used. Within this device, biofilms grow on the surface of polystyrene pegs, 96 of which are attached to a lid. These pegs are inserted into a flat bottom 96-well plate. In this instance, the MBEC of a molecule is defined as the concentration of compound required to reduce approximately 10^6 CFU/peg to approximately 10^2 CFU/peg in a 24-hour period.
Following the manufacturer's guidelines, biofilms are grown on the surface of each peg by first making a 0.5 McFarland of A. baumannii. The 0.5 McFarland is diluted 1:100 in CAMHB broth. Into each well of a flat bottom 96-well plate, 150 μL of broth is pipetted. The plate is shaken at 100 rpm for 24 hours. The pegs are placed into a separate flat bottom 96-well plate for 10 seconds with 200 μL of phosphate buffered saline (PBS) in each well to remove nonadherent cells. The lid is placed into a 96-well plate that contains varying concentrations of antimicrobial with 200 μL of broth per well. The plate is incubated for 24 hours at 37° C. after which time 100 μL of broth is plated on TSA. TSA plates is incubated 24 hours at 37° C. and the number of CFU counted to calculate the CFU/peg.
MBEC data were collected using the MBEC Inoculation Tray by Innovotech. The MBEC was defined in these preliminary results as the concentration of antimicrobial required to reduce 10^5 or 10^6 CFU/peg to 10^2 CFU/peg in a 24-hour period.

[6] = Acinetobacter baumannii, read-out: MICs (μg/mL) II: A. baumannii

Question: What does the source list for `CC(C)CNCCCNCCCNCc1cc(CNCCCNCCCNCC(C)C)cc(-c2ccccc2)c1` [CZ-86, N^1,N^1′-([1,1′-biphenyl]-3,5-diylbis(methylene))bis(N^3-(3-(isobutylamino)propyl)propane-1,3-diamine), hydrochloride salt]?
Answer: Results Pass/Fail (L-929 cells (ATCC CCL-1); Table 8A, 400 μg/mL): Fail (a numerical grade greater than 2 is considered a cytotoxic effect, or a failing score (Fail)); Results Pass/Fail (L-929 cells (ATCC CCL-1); Table 8A, dilution 1:2 of 400 μg/mL): Fail (a numerical grade greater than 2 is considered a cytotoxic effect, or a failing score (Fail)); Results Pass/Fail (L-929 cells (ATCC CCL-1); Table 8A, dilution 1:4 of 400 μg/mL): Fail (a numerical grade greater than 2 is considered a cytotoxic effect, or a failing score (Fail)); Results Pass/Fail (L-929 cells (ATCC CCL-1); Table 8A, dilution 1:8 of 400 μg/mL): Pass (receives a passing score (Pass) if the reactivity grade is not greater than grade 2 or a mild reactivity); Results Pass/Fail (L-929 cells (ATCC CCL-1); Table 8A, dilution 1:16 of 400 μg/mL): Pass (receives a passing score (Pass) if the reactivity grade is not greater than grade 2 or a mild reactivity); MIC (MRSA; read-out: MIC (MRSA)): < 50 µM

Question: `CN[C@H](CC(C)C)C(=O)N[C@H]1C(=O)N[C@@H](CC(N)=O)C(=O)N[C@H]2C(=O)N[C@H]3C(=O)N[C@H](C(=O)N[C@H](C(=O)O)c4cc(O)cc(O)c4-c4cc3ccc4O)[C@H](O)c3ccc(c(Cl)c3)Oc3cc2cc(c3O[C@@H]2O[C@H](CO)[C@@H](O)[C@H](O)[C@H]2O[C@H]2C[C@](C)(N)[C@H](O)[C@H](C)O2)Oc2ccc(cc2Cl)[C@H]1O` [vancomycin, reference compound] was tested. Which MIC (MRSA biofilms [1]) did it give?
Answer: > 500 µg/mL

Question: And the MIC (MRSA; read-out: MIC μg/mL (μM) MRSA)?
Answer: 10 µg/mL and 6.9 µM

Question: And the MIC (MRSA; read-out: MICs (μg/mL): MRSA (first MRSA column))?
Answer: 10 µg/mL

Question: And the MIC (MRSA biofilms [2])?
Answer: > 25000 µg/mL

Question: How did the MIC (A. baumannii biofilms [3]; [6]) turn out when `NCCCNCCCNCc1ccccc1` [CZ-7, benzylnorspermidine] was run?
Answer: > 5000 µg/mL

Question: And the MIC (A. baumannii biofilms [4]; [6])?
Answer: > 500 µg/mL

Question: What about the MIC (MRSA biofilms [1]; Table 3A c4, group head missing, probably MBEC) of the same molecule?
Answer: > 500 µg/mL

Question: What about the MIC (MRSA; Table 3A c1, read-out: MICs (μg/mL): MRSA (first MRSA column)) of the same molecule?
Answer: > 500 µg/mL

Question: And the MIC (MRSA; Table 4, value in parentheses, read-out: MIC μg/mL (μM) MRSA)?
Answer: > 2260 µM

Question: And the MIC (MRSA; Table 4, read-out: MIC μg/mL (μM) MRSA)?
Answer: > 500 µg/mL

Question: What about the MIC (MRSA; Table 5, read-out: MIC (MRSA)) of the same molecule?
Answer: > 100 µM

Question: What about the “MBEC μg/mL (μM) A. baumannii” value (A. baumannii biofilms [5]; Table 4) of the same molecule?
Answer: >500 µg/mL

Question: What about the “MBEC μg/mL (μM) A. baumannii” value (A. baumannii biofilms [5]; Table 4, value in parentheses) of the same molecule?
Answer: (>2,259) μM

Question: What about the MIC (MRSA biofilms [2]; Table 3B c2, group head missing) of the same molecule?
Answer: > 5000 µg/mL

Question: `NCCCNCCCNCc1cc(CNCCCNCCCN)cc(-c2ccccc2)c1` [CZ-58, N^1,N^1′-([1,1′-biphenyl]-3,5-diylbis(methylene))bis(N^3-(3-ammoniopropyl)propane-1,3-diaminium) chloride] was tested. Which “Results Pass/Fail” value (L-929 cells (ATCC CCL-1); Table 10A, 25 μg/mL) did it give?
Answer: Fail (a numerical grade greater than 2 is considered a cytotoxic effect, or a failing score (Fail))

Question: What about the “Results Pass/Fail” value (L-929 cells (ATCC CCL-1); Table 10A, dilution 1:2 of 25 μg/mL) of the same molecule?
Answer: Fail (a numerical grade greater than 2 is considered a cytotoxic effect, or a failing score (Fail))

Question: And the “Results Pass/Fail” value (L-929 cells (ATCC CCL-1); Table 10A, dilution 1:4 of 25 μg/mL)?
Answer: Pass (receives a passing score (Pass) if the reactivity grade is not greater than grade 2 or a mild reactivity)

Question: What about the “Results Pass/Fail” value (L-929 cells (ATCC CCL-1); Table 10A, dilution 1:8 of 25 μg/mL) of the same molecule?
Answer: Pass (receives a passing score (Pass) if the reactivity grade is not greater than grade 2 or a mild reactivity)

Question: And the “Results Pass/Fail” value (L-929 cells (ATCC CCL-1); Table 10A, dilution 1:16 of 25 μg/mL)?
Answer: Pass (receives a passing score (Pass) if the reactivity grade is not greater than grade 2 or a mild reactivity)

Question: What about the “MBEC μg/mL (μM) A. baumannii” value (A. baumannii biofilms [5]; Table 4) of the same molecule?
Answer: >50 µg/mL

Question: What about the “MBEC μg/mL (μM) A. baumannii” value (A. baumannii biofilms [5]; Table 4, value in parentheses) of the same molecule?
Answer: (>113) μM

Question: Which results are given for “Polymyxin B sulfate [reference compound]”?
Answer: MICs (μg/mL) II: A. baumannii (A. baumannii biofilms [3]): 1,000 μg/mL; MICs (μg/mL) II: A. baumannii (A. baumannii biofilms [4]): 50 µg/mL; MBEC μg/mL (μM) A. baumannii (A. baumannii biofilms [5]; Table 4): 50 µg/mL; MBEC μg/mL (μM) A. baumannii (A. baumannii biofilms [5]; Table 4, value in parentheses): (36) μM

Question: Which “MBEC μg/mL (μM) A. baumannii” value (A. baumannii biofilms [5]; Table 4) does the source give for `NCCCNCCCNCc1cccc(CNCCCNCCCN)c1` [CZ-25, N^1,N^1′-(1,3-phenylenebis(methylene))bis(N3-(3-ammoniopropyl)propane-1,3-diaminium) chloride] here?
Answer: 450 µg/mL

Question: What does the source list for `NCCCNCCCNCc1cc(CNCCCNCCCN)cc(CNCCCNCCCN)c1` [CZ-52, N^1,N^1′,N^1″-(benzene-1,3,5-triyltris(methylene))tris(N^3-(3-aminopropyl)propane-1,3-diamine), hydrochloride salt]?
Answer: Results Pass/Fail (L-929 cells (ATCC CCL-1); Table 9A, 3.125 μg/mL): Pass (receives a passing score (Pass) if the reactivity grade is not greater than grade 2 or a mild reactivity); Results Pass/Fail (L-929 cells (ATCC CCL-1); Table 9A, 6.25 μg/mL): Fail (a numerical grade greater than 2 is considered a cytotoxic effect, or a failing score (Fail)); Results Pass/Fail (L-929 cells (ATCC CCL-1); Table 9A, 12.5 μg/mL): Fail (a numerical grade greater than 2 is considered a cytotoxic effect, or a failing score (Fail)); Results Pass/Fail (L-929 cells (ATCC CCL-1); Table 9A, 25 μg/mL): Fail (a numerical grade greater than 2 is considered a cytotoxic effect, or a failing score (Fail)); Results Pass/Fail (L-929 cells (ATCC CCL-1); Table 9A, 1.563 (unit not given)): Pass (receives a passing score (Pass) if the reactivity grade is not greater than grade 2 or a mild reactivity); MBEC μg/mL (μM) A. baumannii (A. baumannii biofilms [5]; Table 4): >500 µg/mL
